The text below walks through data of US10526290B2, “Bendamustine derivatives and related compounds, and medical use thereof in cancer therapy” (SYNBIAS PHARMA AG, priority 2012, dated 2020).

As usually defined, the melting point is the temperature of the solid-liquid transition.

Compound `Cl.Cn1c(CCCC(=O)O)nc2ccc(N(CCCl)CCCl)cc21` showed a melting point of 174 to 176.5 °C.
